Measured values: ChEMBL document CHEMBL1133428, “Naphthyl ketones: a new class of Janus kinase 3 inhibitors” (Bioorg Med Chem Lett, 2000)

Columns and labels:
[1] = molecular target: Epidermal growth factor receptor (Homo sapiens, UniProt P00533); test: Inhibition of Epidermal growth factor receptor
[2] = molecular target: Cyclin-dependent kinase 4 (Homo sapiens, UniProt P11802); test: Inhibition of Cyclin-dependent kinase 4
[3] = molecular target: Tyrosine-protein kinase JAK1 (Homo sapiens, UniProt P23458); test: Inhibition of Janus kinase 1
Chain of Tyrosine-protein kinase JAK1 (P23458 whole entry): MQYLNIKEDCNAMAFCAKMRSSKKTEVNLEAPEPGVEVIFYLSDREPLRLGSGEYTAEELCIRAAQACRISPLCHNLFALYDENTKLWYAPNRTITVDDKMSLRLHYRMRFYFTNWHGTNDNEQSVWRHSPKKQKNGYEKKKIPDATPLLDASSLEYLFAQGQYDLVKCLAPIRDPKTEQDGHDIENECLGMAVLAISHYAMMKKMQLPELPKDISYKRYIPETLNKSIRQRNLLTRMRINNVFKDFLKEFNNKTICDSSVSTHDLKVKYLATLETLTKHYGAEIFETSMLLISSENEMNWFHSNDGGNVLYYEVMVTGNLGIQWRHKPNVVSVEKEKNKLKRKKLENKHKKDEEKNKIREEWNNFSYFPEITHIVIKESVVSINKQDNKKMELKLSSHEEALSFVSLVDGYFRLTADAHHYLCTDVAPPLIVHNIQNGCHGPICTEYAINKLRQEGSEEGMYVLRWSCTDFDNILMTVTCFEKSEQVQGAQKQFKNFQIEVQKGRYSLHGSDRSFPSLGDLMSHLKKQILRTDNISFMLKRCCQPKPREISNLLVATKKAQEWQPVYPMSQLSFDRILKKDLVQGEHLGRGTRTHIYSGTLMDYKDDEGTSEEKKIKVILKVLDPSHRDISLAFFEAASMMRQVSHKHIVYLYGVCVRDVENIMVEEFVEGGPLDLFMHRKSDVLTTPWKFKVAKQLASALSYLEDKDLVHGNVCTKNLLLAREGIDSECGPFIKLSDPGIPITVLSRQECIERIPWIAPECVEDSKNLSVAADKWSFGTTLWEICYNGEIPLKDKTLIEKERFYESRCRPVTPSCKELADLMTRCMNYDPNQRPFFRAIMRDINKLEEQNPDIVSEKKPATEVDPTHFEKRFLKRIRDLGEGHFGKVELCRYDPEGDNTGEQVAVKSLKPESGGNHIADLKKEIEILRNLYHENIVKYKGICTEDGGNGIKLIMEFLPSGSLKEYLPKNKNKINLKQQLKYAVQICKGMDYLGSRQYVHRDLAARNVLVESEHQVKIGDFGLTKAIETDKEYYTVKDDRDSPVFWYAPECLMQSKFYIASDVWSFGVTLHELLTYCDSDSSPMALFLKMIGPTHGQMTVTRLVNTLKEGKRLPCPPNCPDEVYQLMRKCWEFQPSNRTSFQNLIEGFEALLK

[4] = molecular target: Tyrosine-protein kinase Lck (Homo sapiens, UniProt P06239); test: Inhibition of p56 Lck tyrosine kinase
Chain of Tyrosine-protein kinase Lck (P06239 whole entry): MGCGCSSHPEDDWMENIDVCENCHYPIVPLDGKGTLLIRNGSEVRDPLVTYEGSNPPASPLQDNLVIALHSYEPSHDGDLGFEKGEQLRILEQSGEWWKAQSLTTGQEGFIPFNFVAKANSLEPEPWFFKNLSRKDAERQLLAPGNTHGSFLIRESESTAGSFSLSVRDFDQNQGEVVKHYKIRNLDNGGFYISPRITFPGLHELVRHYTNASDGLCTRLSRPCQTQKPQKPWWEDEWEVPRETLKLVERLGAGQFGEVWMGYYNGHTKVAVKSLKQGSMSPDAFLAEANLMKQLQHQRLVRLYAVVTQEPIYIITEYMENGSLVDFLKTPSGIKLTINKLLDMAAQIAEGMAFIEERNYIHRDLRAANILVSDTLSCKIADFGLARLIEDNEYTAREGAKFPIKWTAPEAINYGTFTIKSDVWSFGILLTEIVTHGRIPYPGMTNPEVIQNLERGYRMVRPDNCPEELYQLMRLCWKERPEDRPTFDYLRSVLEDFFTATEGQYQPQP

Chain of Epidermal growth factor receptor (P00533 whole entry): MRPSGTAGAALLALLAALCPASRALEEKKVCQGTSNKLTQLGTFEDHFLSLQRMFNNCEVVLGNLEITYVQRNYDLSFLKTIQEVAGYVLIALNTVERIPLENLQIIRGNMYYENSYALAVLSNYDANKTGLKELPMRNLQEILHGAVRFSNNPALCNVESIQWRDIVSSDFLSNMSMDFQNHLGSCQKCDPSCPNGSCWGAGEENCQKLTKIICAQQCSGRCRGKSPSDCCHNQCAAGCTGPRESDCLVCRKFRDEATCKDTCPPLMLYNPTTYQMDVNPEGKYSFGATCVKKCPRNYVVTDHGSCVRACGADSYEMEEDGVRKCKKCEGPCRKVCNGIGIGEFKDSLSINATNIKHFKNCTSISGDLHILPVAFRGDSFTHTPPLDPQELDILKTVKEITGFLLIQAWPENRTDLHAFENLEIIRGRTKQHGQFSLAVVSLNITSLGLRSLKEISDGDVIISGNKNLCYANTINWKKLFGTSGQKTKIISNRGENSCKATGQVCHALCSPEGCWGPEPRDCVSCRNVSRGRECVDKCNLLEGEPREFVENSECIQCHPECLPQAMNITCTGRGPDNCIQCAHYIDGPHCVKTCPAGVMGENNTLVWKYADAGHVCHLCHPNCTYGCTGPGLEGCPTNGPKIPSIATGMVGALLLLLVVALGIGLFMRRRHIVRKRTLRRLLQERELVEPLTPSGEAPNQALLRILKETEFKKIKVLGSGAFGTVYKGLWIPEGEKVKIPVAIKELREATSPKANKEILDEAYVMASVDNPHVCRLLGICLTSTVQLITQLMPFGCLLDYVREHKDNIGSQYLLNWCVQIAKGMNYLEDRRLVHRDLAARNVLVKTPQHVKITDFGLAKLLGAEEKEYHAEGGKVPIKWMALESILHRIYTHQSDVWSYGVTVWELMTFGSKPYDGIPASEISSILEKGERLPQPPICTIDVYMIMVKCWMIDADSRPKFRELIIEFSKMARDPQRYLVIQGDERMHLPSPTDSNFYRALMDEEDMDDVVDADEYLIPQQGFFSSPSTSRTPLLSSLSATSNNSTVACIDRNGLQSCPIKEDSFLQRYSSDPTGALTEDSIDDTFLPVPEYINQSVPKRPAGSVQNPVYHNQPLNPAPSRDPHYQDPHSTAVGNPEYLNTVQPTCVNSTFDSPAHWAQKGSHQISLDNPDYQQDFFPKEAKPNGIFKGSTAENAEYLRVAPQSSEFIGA
Chain of Cyclin-dependent kinase 4 (P11802 whole entry): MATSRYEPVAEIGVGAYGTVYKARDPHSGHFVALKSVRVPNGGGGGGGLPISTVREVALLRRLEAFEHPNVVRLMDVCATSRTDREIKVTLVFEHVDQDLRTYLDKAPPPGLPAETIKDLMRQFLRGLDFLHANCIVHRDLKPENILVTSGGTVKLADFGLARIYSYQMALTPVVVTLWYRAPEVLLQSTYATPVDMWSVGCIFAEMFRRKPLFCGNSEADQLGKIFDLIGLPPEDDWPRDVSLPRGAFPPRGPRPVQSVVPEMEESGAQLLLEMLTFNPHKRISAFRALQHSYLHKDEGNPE

C=CC(=O)c1ccc2ccccc2c1
IC50 [1]: 10 µM
IC50 [2]: > 10 µM
IC50 [3]: 20 µM
IC50 [4]: > 10 µM

CC(C)N(CCC(=O)c1ccc2ccccc2c1)Cc1ccccc1
IC50 [1]: 2.51 µM
IC50 [2]: > 10 µM
IC50 [3]: 39.8 µM
IC50 [4]: > 10 µM
